{
  "source": "patent US11078198B2",
  "about": "(BRISTOL-MYERS SQUIBB COMPANY, priority 2017, dated 2021)",
  "key": {"[1]": {"test_system": "Cyp7a1", "experiment": "Acute mouse in vivo assay, Cyp7a1 gene expression in liver", "settings": "@ 6 h", "procedure": "(§1) Acute Mouse In Vivo Assay:\n(§2) Male, C57BL6/NTac mice, weighing 25-28 g, are purchased from Taconic Labs (Hudson, N.Y.) and maintained on Teklad Global 18% Protein Rodent Diet (Harlan Laboratories). After 1 week acclimation, mice are sorted into groups based upon body weight. Mice are administered a single oral dose of vehicle or experimental compound. Systemic compound exposure is evaluated in plasma derived from blood collected via the submandibular vein at 1 hour post-dose, and at study termination (6 h). At study termination, the animals are euthanized and rapidly dissected. The medial lobe of the liver is divided, with one half being homogenized and analyzed for compound exposure, and the other half saved in RNAlater (Thermo-Fisher Scientific). The ileum is also dissected and preserved in RNAlater. Tissue samples in RNAlater are homogenized with MP Biomedicals' beads. RNA is extracted using the MagMax-96 Total RNA Isolation kit (Thermo-Fisher Scientific) according to the manufacturer's protocol. RNA Concentration is determined with the Nano-Drop 8000 Spectrophotometer (Thermo Fisher). Reverse transcription is done with Invitrogen's SuperScript® VILO cDNA Synthesis Kit according to the manufacturer's protocol. Real time PCR is done with Applied Biosystems' Taqman PCR master mixture according to the manufacturer's protocol. All primers are purchased from Thermo-Fisher Scientific. Mouse genes analyzed include Nr0b2 (which encodes the small heterodimer partner, SHP), Abcb11 (which encodes the bile salt excretion pump, BSEP), Cyp7a1, & Cyp8b1 in liver, and Fgf15, Fabp6 (which encodes ileal bile acid binding protein, I-BABP), Slc51a (which encodes organic solute transporter alpha subunit, OSTA), and Slc51b (which encodes organic solute transporter beta subunit, OSTB) in the ileum. The statistical significant changes in FGF15 gene expression are expressed as fold increase and CYP7A1 expression as a percent reduction relative to vehicle control."}, "[2]": {"molecular_target": "T1, human FXR (Homo sapiens, UniProt Q96RI1)", "T1 construct": "expressed in transfected cells; host or cells: HEK293 cells stably carrying a 5xGal4-response-element firefly luciferase reporter, transiently transfected with pcDNA3.1-Gal4-FXR", "T1 sequence (Q96RI1 262-486 limits assumed)": "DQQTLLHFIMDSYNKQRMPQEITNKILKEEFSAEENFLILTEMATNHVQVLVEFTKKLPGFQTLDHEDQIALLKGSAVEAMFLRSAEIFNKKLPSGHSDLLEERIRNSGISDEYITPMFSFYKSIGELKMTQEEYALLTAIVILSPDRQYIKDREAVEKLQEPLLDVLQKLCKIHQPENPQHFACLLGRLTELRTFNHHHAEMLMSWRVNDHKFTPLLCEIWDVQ", "experiment": "transient human FXR/Gal4-luciferase reporter assay", "assay_type": "cell-based", "settings": "Gal4-hFXR transfected HEK293 reporter cells; relative to 8 μM GW-4064", "method_in_brief": "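HEK293 cells stably carrying a 5×Gal4-response-element firefly luciferase reporter, transiently transfected overnight with a CMV-driven Gal4 DNA-binding domain/human FXR ligand-binding domain fusion.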"}, "[3]": {"test_system": "Fgf15", "experiment": "Acute mouse in vivo assay, Fgf15 gene expression in ileum", "settings": "@ 6 h", "procedure": "as §1, §2"}},
  "data": [
    {"compound": "O=C(O)c1ccc2cc(N3CCC4(C=C(c5c(-c6c(Cl)cccc6Cl)noc5C5CC5)C4)CC3)ccc2n1", "note": "[Example 20, 6-(2-(5-Cyclopropyl-3-(2,6-dichlorophenyl)isoxazol-4-yl)-7-azaspiro[3.5]non-1-en-7-yl) quinoline-2-carboxylic acid]", "values": [
      {"measurement": "Cyp7a1 expression, percent reduction relative to vehicle control", "setting": "[1]; single oral dose 3 mg/kg", "result": "−98", "unit": "%"}
    ]},
    {"compound": "O=C(O)c1cc(C(F)(F)F)c2cc(N3CCC4(C=C(c5c(-c6c(Cl)cncc6Cl)noc5C5CC5)C4)CC3)ccc2n1", "note": "[Example 85, 6-(2-(5-cyclopropyl-3-(3,5-dichloropyridin-4-yl)isoxazol-4-yl)-7-azaspiro[3.5]non-1-en-7-yl)-4-(trifluoromethyl)quinoline-2-carboxylic acid]", "values": [
      {"measurement": "Cyp7a1 expression, percent reduction relative to vehicle control", "setting": "[1]; single oral dose 3 mg/kg", "result": "−94", "unit": "%"}
    ]},
    {"compound": "CS(=O)(=O)NC(=O)c1cc(C(F)(F)F)c2cc(N3CCC4(C=C(c5c(-c6c(Cl)cncc6Cl)noc5C5CC5)C4)CC3)ccc2n1", "note": "[Example 184, 6-(2-(5-Cyclopropyl-3-(3,5-dichloropyridin-4-yl)isoxazol-4-yl)-7-azaspiro[3.5]non-1-en-7-yl)-N-(methylsulfonyl)-4-(trifluoromethyl)quinoline-2-carboxamide]", "values": [
      {"measurement": "EC50", "setting": "[2]", "result": 73, "unit": "nM"},
      {"measurement": "Cyp7a1 expression, percent reduction relative to vehicle control", "setting": "[1]; single oral dose 3 mg/kg", "result": "−99", "unit": "%"},
      {"measurement": "Fgf15 expression, fold increase relative to vehicle control", "setting": "[3]; single oral dose 3 mg/kg", "result": "+28 ×"}
    ]},
    {"compound": "COc1cc(C(=O)O)nc2ccc(N3CCC4(C=C(c5c(-c6c(Cl)cncc6Cl)noc5C5CC5)C4)CC3)cc12", "note": "[Example 108, 6-(2-(5-Cyclopropyl-3-(3,5-dichloropyridin-4-yl)isoxazol-4-yl)-7-azaspiro[3.5]non-1-en-7-yl)-4-methoxyquinoline-2-carboxylic acid]", "values": [
      {"measurement": "EC50", "setting": "[2]", "result": 32, "unit": "nM"},
      {"measurement": "Cyp7a1 expression, percent reduction relative to vehicle control", "setting": "[1]; single oral dose 3 mg/kg", "result": "−97", "unit": "%"},
      {"measurement": "Fgf15 expression, fold increase relative to vehicle control", "setting": "[3]; single oral dose 3 mg/kg", "result": "+14 ×"}
    ]},
    {"compound": "O=C(O)c1cc(F)c2nc(N3CCC4(C=C(c5c(-c6c(Cl)cccc6Cl)noc5C5CC5)C4)CC3)sc2c1", "note": "[Example 1, 2-(2-(5-Cyclopropyl-3-(2,6-dichlorophenyl)isoxazol-4-yl)-7-azaspiro[3.5]non-1-en-7-yl)-4-fluorobenzo[d]thiazole-6-carboxylic acid]", "values": [
      {"measurement": "Cyp7a1 expression, percent reduction relative to vehicle control", "setting": "[1]; single oral dose 3 mg/kg", "result": "−99", "unit": "%"},
      {"measurement": "Cyp7a1 expression, percent reduction relative to vehicle control", "setting": "[1]; single oral dose 30 mg/kg", "result": "−99", "unit": "%"},
      {"measurement": "Fgf15 expression, fold increase relative to vehicle control", "setting": "[3]; single oral dose 3 mg/kg", "result": "+18 ×"},
      {"measurement": "Fgf15 expression, fold increase relative to vehicle control", "setting": "[3]; single oral dose 30 mg/kg", "result": "+31 ×"}
    ]},
    {"compound": "CS(=O)(=O)NC(=O)c1cc(OC(F)F)c2cc(N3CCC4(C=C(c5c(-c6ncccc6Cl)noc5C5CC5)C4)CC3)ccc2n1", "note": "[Example 190, 6-(2-(3-(3-Chloropyridin-2-yl)-5-cyclopropylisoxazol-4-yl)-7-azaspiro[3.5]non-1-en-7-yl)-4-(difluoromethoxy)-N-(methylsulfonyl)quinoline-2-carboxamide]", "values": [
      {"measurement": "EC50", "setting": "[2]", "result": 168, "unit": "nM"}
    ]},
    {"compound": "Cc1cccc(Cl)c1-c1noc(C2CC2)c1C1=CC2(CCN(c3ccc4nc(C(=O)O)ccc4c3)CC2)C1", "note": "[Example 157, 6-(2-(3-(2-Chloro-6-methylphenyl)-5-cyclopropylisoxazol-4-yl)-7-azaspiro[3.5]non-1-en-7-yl)quinoline-2-carboxylic acid]", "values": [
      {"measurement": "EC50", "setting": "[2]", "result": 223, "unit": "nM"}
    ]},
    {"compound": "O=C(O)c1ccc2cc(N3CCC4(C=C(c5c(-c6ccncc6Cl)noc5C5CC5)C4)CC3)ccc2n1", "note": "[Example 150, 6-(2-(3-(3-Chloropyridin-4-yl)-5-cyclopropylisoxazol-4-yl)-7-azaspiro[3.5]non-1-en-7-yl)quinoline-2-carboxylic acid]", "values": [
      {"measurement": "EC50", "setting": "[2]", "result": 4350, "unit": "nM"}
    ]},
    {"compound": "O=C(O)c1ccc2nc(N3CCC4(C=C(c5c(-c6c(Cl)cccc6Cl)noc5C5CC5)C4)CC3)cnc2c1", "note": "[Example 100, 2-(2-(5-cyclopropyl-3-(2,6-dichlorophenyl)isoxazol-4-yl)-7-azaspiro[3.5]non-1-en-7-yl)quinoxaline-6-carboxylic acid]", "values": [
      {"measurement": "EC50", "setting": "[2]", "result": 33, "unit": "nM"}
    ]},
    {"compound": "COc1cc(C(=O)O)c2nc(N3CCC4(C=C(c5c(-c6c(Cl)cncc6Cl)noc5C5CC5)C4)CC3)sc2c1", "note": "[Example 70, 2-(2-(5-Cyclopropyl-3-(3,5-dichloropyridin-4-yl)isoxazol-4-yl)-7-azaspiro[3.5]non-1-en-7-yl)-6-methoxybenzo[d]thiazole-4-carboxylic acid]", "values": [
      {"measurement": "EC50", "setting": "[2]", "result": 4400, "unit": "nM"}
    ]},
    {"compound": "O=C(O)c1ccc(N2CCC3(C=C(c4c(-c5ccccc5C(F)(F)F)noc4C4CC4)C3)CC2)nc1", "note": "[Example 30, 6-(2-(5-Cyclopropyl-3-(2-(trifluoromethyl)phenyl)isoxazol-4-yl)-7-azaspiro[3.5]non-1-en-7-yl) nicotinic acid]", "values": [
      {"measurement": "EC50", "setting": "[2]", "result": 110, "unit": "nM"}
    ]},
    {"compound": "O=C(O)c1cc2ccc(N3CCC4(C=C(c5c(-c6c(F)cccc6F)noc5C5CC5)C4)CC3)cc2cn1", "note": "[Example 162, 7-(2-(5-Cyclopropyl-3-(2,6-difluorophenyl)isoxazol-4-yl)-7-azaspiro[3.5]non-1-en-7-yl)isoquinoline-3-carboxylic acid]", "values": [
      {"measurement": "EC50", "setting": "[2]", "result": 2820, "unit": "nM"}
    ]},
    {"compound": "CC(C)c1onc(-c2c(Cl)cccc2Cl)c1C1=CC2(CCN(c3ccc4nc(C(=O)O)cc(C(F)(F)F)c4c3)CC2)C1", "note": "[Example 84, 6-(2-(3-(2,6-Dichlorophenyl)-5-isopropylisoxazol-4-yl)-7-azaspiro[3.5]non-1-en-7-yl)-4-(trifluoromethyl)quinoline-2-carboxylic acid]", "values": [
      {"measurement": "EC50", "setting": "[2]", "result": 127, "unit": "nM"}
    ]},
    {"compound": "O=C(O)c1cc2ccc(N3CCC4(C=C(c5c(-c6c(F)cccc6Cl)noc5C5CC5)C4)CC3)cc2cn1", "note": "[Example 158, 7-(2-(3-(2-Chloro-6-fluorophenyl)-5-cyclopropylisoxazol-4-yl)-7-azaspiro[3.5]non-1-en-7-yl)isoquinoline-3-carboxylic acid]", "values": [
      {"measurement": "EC50", "setting": "[2]", "result": 459, "unit": "nM"}
    ]},
    {"compound": "O=C(O)c1cc2ccc(N3CCC4(C=C(c5c(-c6cnccc6C(F)(F)F)noc5C5CC5)C4)CC3)cc2cn1", "note": "[Example 160, 7-(2-(5-Cyclopropyl-3-(4-(trifluoromethyl)pyridin-3-yl)isoxazol-4-yl)-7-azaspiro[3.5]non-1-en-7-yl)isoquinoline-3-carboxylic acid]", "values": [
      {"measurement": "EC50", "setting": "[2]", "result": 1610, "unit": "nM"}
    ]},
    {"compound": "Cn1nc(C#N)c2ccc(N3CCC4(C=C(c5c(-c6ccccc6OC(F)(F)F)noc5C5CC5)C4)CC3)cc21", "note": "[Example 175, 6-(2-(5-Cyclopropyl-3-(2-(trifluoromethoxy)phenyl)isoxazol-4-yl)-7-azaspiro[3.5]non-1-en-7-yl)-1-methyl-1H-indazole-3-carbonitrile]", "values": [
      {"measurement": "EC50", "setting": "[2]", "result": 3240, "unit": "nM"}
    ]},
    {"compound": "O=C(O)c1cccc(N2CCC3(C=C(c4c(-c5c(Cl)cccc5Cl)noc4C4CC4)C3)CC2)c1", "note": "[Example 9, 3-(2-(5-Cyclopropyl-3-(2,6-dichlorophenyl)isoxazol-4-yl)-7-azaspiro[3.5]non-1-en-7-yl)benzoic acid]", "values": [
      {"measurement": "EC50", "setting": "[2]", "result": 4200, "unit": "nM"}
    ]},
    {"compound": "O=C(O)c1cc(OC(F)F)c2cc(N3CCC4(C=C(c5c(-c6ccncc6Cl)noc5C5CC5)C4)CC3)ccc2n1", "note": "[Example 74, 6-(2-(3-(3-Chloropyridin-4-yl)-5-cyclopropylisoxazol-4-yl)-7-azaspiro[3.5]non-1-en-7-yl)-4-(difluoromethoxy)quinoline-2-carboxylic acid]", "values": [
      {"measurement": "EC50", "setting": "[2]", "result": 38, "unit": "nM"}
    ]},
    {"compound": "O=C(O)c1ccc(OC2CCC3(CC2)CC(O)(c2c(-c4c(Cl)cccc4Cl)noc2C2CC2)C3)cc1", "note": "(centres unmarked) [Example 208, 4-((2-(5-Cyclopropyl-3-(2,6-dichlorophenyl)isoxazol-4-yl)-2-hydroxyspiro[3.5]nonan-7-yl)oxy)benzoic acid]", "values": [
      {"measurement": "EC50", "setting": "[2]", "result": 6660, "unit": "nM"}
    ]},
    {"compound": "O=C(O)CNC(=O)c1ccc(N2CCC3(C=C(c4c(-c5ccccc5C(F)(F)F)noc4C4CC4)C3)CC2)nc1", "note": "[Example 31, (6-(2-(5-Cyclopropyl-3-(2-(trifluoromethyl)phenyl)isoxazol-4-yl)-7-azaspiro[3.5]non-1-en-7-yl)nicotinoyl)glycine]", "values": [
      {"measurement": "EC50", "setting": "[2]", "result": 5300, "unit": "nM"}
    ]},
    {"compound": "Cn1cc(C(=O)O)c2ccc(N3CCC4(C=C(c5c(-c6c(Cl)cccc6Cl)noc5C5CC5)C4)CC3)nc21", "note": "[Example 7, 6-(2-(5-Cyclopropyl-3-(2,6-dichlorophenyl)isoxazol-4-yl)-7-azaspiro[3.5]non-1-en-7-yl)-1-methyl-1H-pyrrolo[2,3-b]pyridine-3-carboxylic acid]", "values": [
      {"measurement": "EC50", "setting": "[2]", "result": 24, "unit": "nM"}
    ]},
    {"compound": "CC(C)c1onc(-c2c(Cl)cncc2Cl)c1C1=CC2(CCN(c3nc4c(F)cc(C(=O)O)cc4s3)CC2)C1", "note": "[Example 52, 2-(2-(3-(3,5-Dichloropyridin-4-yl)-5-isopropylisoxazol-4-yl)-7-azaspiro[3.5]non-1-en-7-yl)-4-fluorobenzo[d]thiazole-6-carboxylic acid]", "values": [
      {"measurement": "EC50", "setting": "[2]", "result": 58, "unit": "nM"}
    ]}
  ]
}
